{"source": "paper PMC4789591", "about": "“Involvement of Daphnia pulicaria Sir2 in regulating stress response and lifespan” (Aging (Albany NY), 2016)", "biological_target": "T1, Daphnia Sir2 (Daphnia pulicaria, UniProt A0A0U3BSS1)", "T1 construct": "full-length ORF, N-terminal FLAG tag, pcDNA3.1-, in vitro translated in rabbit reticulocyte lysate (TNT T7), not purified; calculated mass 67 kD", "T1 sequence (A0A0U3BSS1 1-601)": "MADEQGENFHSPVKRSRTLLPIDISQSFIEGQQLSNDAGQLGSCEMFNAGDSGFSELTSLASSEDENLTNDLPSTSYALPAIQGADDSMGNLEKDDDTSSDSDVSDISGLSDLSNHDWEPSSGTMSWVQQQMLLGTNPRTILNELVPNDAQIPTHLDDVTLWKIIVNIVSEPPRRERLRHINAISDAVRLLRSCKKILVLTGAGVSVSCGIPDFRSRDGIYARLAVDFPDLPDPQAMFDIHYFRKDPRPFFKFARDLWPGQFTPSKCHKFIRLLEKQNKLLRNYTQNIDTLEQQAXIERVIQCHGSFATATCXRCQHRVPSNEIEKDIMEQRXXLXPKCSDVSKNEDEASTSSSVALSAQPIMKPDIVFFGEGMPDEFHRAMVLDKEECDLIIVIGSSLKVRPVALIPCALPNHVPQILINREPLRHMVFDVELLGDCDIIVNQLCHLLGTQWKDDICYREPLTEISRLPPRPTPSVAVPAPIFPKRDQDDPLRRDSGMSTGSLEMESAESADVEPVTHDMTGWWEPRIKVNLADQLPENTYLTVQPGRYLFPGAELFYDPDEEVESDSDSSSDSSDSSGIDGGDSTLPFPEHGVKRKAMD", "experiment": "fluorogenic acetylated-peptide deacetylase assay (Abcam ab156065)", "type": "biochemical", "settings": "in vitro translated protein in reticulocyte lysate, lysate background subtracted; inhibitor concentration not told for this test; peptidase-coupled", "data": [{"compound": "NC(=O)C1CCCc2c1[nH]c1ccc(Cl)cc21", "note": "(stereo not shown) [Ex527]", "values": [{"measurement": "inhibition of deacetylase activity", "value": "human recombinant Sirt1 as well as Daphnia Sir2 activity is significantly diminished by the inhibitor"}]}]}
